# Measurements published in patent US20220296627A1, “Cytidine Derivatives and Methods of Forming Cytidine Derivatives” (Aenorasis Commercial Company of Pharmaceutical and Medical …, priority 2019, published 2022).
# Columns and labels:
# Type in all cases: cell-based
# [1] = tested on: A549/WT wild type human lung adenocarcinoma cell line; test: Cell growth assay (SRB) in A549/WT; conditions: for Ratio of IC50 in the presence of dipyridamole / IC50 in the absence of dipyridamole / Ratio of IC50 in the presence of, compared to in the absence of, dipyridamole: A549/WT; for Ratio of IC50 in the presence of dipyridamole / IC50 in the absence of dipyridamole: 4-N-acyl and 4-N-phosphoryl derivatives (Table 5); for IC50: Homo sapiens, A549, A549/WT; for Ratio of IC50 in the presence of, compared to in the absence of, dipyridamole: acetylated 4-N-acyl derivatives (Table 7)
# Experimental: (§1) Biological activities of the Gemcitabine derivative (which may be referred to as analogues) described above were evaluated with two assays: • 1. Cell growth assay using the SRB assay in cell lines A549/WT, SW1573/WT, PANC-01 and BXPC-3. • 2. MTT assay in human bladder cancer cell line T-24
# (§2) The following cell lines were tested: • A549/WT —wild type human lung adenocarcinoma cell line (1) • SW1573/WT —wild type non-small lung human cell line (2), • PANC-01—human pancreatic cancer cell line (3) • BXPC-3 -epithelial human pancreatic adenocarcinoma cells (4).
# (§3) Dipyridamole inhibits adenosine uptake by erythrocytes platelets and endothelial cells in vitro and in vivo. Thus, the present inventors recruited dipyridamole as an inhibitor of the nucleoside transporters of the tumour cells to observe the behaviour of the presently described Gemcitabine derivatives.
# (§4) From the IC50 of each compound in the presence of dipyridamole, by dividing it with the IC50 of each compound in the absence of dipyridamole, the present inventors calculated a ratio that compared the efficacy of the analogous presence of dipyridamole.
# (§5) Ratio=IC50 in the presence of dipyridamole/IC50 in the absence of dipyridamole • FIG. 10. Ratio of IC50 of 4-N-acyl and 4-N-phosphoryl derivatives in the presence of, compared to in the absence of, dipyridamole, in four cell lines
# [2] = tested on: SW1573/WT wild type non-small lung human cell line; test: Cell growth assay (SRB) in SW1573/WT; conditions: for IC50: Homo sapiens, SW1573, SW 1573/WT; for Ratio of IC50 in the presence of dipyridamole / IC50 in the absence of dipyridamole / Ratio of IC50 in the presence of, compared to in the absence of, dipyridamole: SW 1573/WT; for Ratio of IC50 in the presence of dipyridamole / IC50 in the absence of dipyridamole: 4-N-acyl and 4-N-phosphoryl derivatives (Table 5); for Ratio of IC50 in the presence of, compared to in the absence of, dipyridamole: acetylated 4-N-acyl derivatives (Table 7)
# Experimental: as §1, §2, §3, §4, §5
# [3] = tested on: BXPC-3 epithelial human pancreatic adenocarcinoma cells; test: Cell growth assay (SRB) in BXPC-3; conditions: for Ratio of IC50 in the presence of dipyridamole / IC50 in the absence of dipyridamole / Ratio of IC50 in the presence of, compared to in the absence of, dipyridamole: BXPC-3; for Ratio of IC50 in the presence of dipyridamole / IC50 in the absence of dipyridamole: 4-N-acyl and 4-N-phosphoryl derivatives (Table 5); for IC50: Homo sapiens, BXPC-3, BXPC-3; for Ratio of IC50 in the presence of, compared to in the absence of, dipyridamole: acetylated 4-N-acyl derivatives (Table 7)
# Experimental: as §1, §2, §3, §4, §5
# [4] = tested on: PANC-01 human pancreatic cancer cell line; test: Cell growth assay (SRB) in PANC-01; conditions: for Ratio of IC50 in the presence of dipyridamole / IC50 in the absence of dipyridamole: 4-N-acyl and 4-N-phosphoryl derivatives (Table 5); for IC50: Homo sapiens, Pancreatic cancer cell; for Ratio of IC50 in the presence of, compared to in the absence of, dipyridamole: acetylated 4-N-acyl derivatives (Table 7)
# Experimental: as §1, §2, §3, §4, §5
# [5] = 4-N-acyl and 4-N-phosphoryl derivatives (Table 4)
# [6] = acetylated 4-N-acyl derivatives (Table 6)
Ratio of IC50 in the presence of dipyridamole / IC50 in the absence of dipyridamole [1],"IC50 [1, 5] [nM]","IC50 [2, 5] [nM]",Ratio of IC50 in the presence of dipyridamole / IC50 in the absence of dipyridamole [2],Ratio of IC50 in the presence of dipyridamole / IC50 in the absence of dipyridamole [3],"IC50 [3, 5] [nM]",Ratio of IC50 in the presence of dipyridamole / IC50 in the absence of dipyridamole [4],"IC50 [4, 5] [nM]","Ratio of IC50 in the presence of, compared to in the absence of, dipyridamole [1]","IC50 [1, 6] [nM]","IC50 [2, 6] [nM]","Ratio of IC50 in the presence of, compared to in the absence of, dipyridamole [2]","Ratio of IC50 in the presence of, compared to in the absence of, dipyridamole [3]","IC50 [3, 6] [nM]","IC50 [4, 6] [nM]","Ratio of IC50 in the presence of, compared to in the absence of, dipyridamole [4]",SMILES
,,,,,,,,6.5,900,610,12.7,10.8,720,6600,3.1,C#CCOC(=O)Nc1ccn(C2OC(COC(C)=O)C(OC(C)=O)C2(F)F)c(=O)n1 (stereo not shown) [Derivative 18]
,,,,,,,,15,1600,1150,3.5,8,770,8000,1.1,CC(=O)OCC1OC(n2ccc(NC(=O)OCC(C)c3ccccc3[N+](=O)[O-])nc2=O)C(F)(F)C1OC(C)=O (stereo not shown) [Derivative 19]
,,,,,,,,7.5,620,570,17.54,4.6,600,3900,4,COc1cc(COC(=O)Nc2ccn(C3OC(COC(C)=O)C(OC(C)=O)C3(F)F)c(=O)n2)c([N+](=O)[O-])cc1OC (stereo not shown) [Derivative 20]
,,,,,,,,2.6,8000,4300,3.7,2.8,3200,25000,1,CC(=O)OCC1OC(n2ccc(NC(=O)OCC(C)C)nc2=O)C(F)(F)C1OC(C)=O (stereo not shown) [Derivative 21]
,,,,,,,,4,400,260,13.4,4.1,450,3700,1.6,CC(=O)Nc1ccn(C2OC(COC(C)=O)C(OC(C)=O)C2(F)F)c(=O)n1 (stereo not shown) [Derivative 22]

# Second part, the compound before the results:
SMILES,Ratio of IC50 in the presence of dipyridamole / IC50 in the absence of dipyridamole [1],"IC50 [1, 5] [nM]","IC50 [2, 5] [nM]",Ratio of IC50 in the presence of dipyridamole / IC50 in the absence of dipyridamole [2],Ratio of IC50 in the presence of dipyridamole / IC50 in the absence of dipyridamole [3],"IC50 [3, 5] [nM]",Ratio of IC50 in the presence of dipyridamole / IC50 in the absence of dipyridamole [4],"IC50 [4, 5] [nM]","Ratio of IC50 in the presence of, compared to in the absence of, dipyridamole [1]","IC50 [1, 6] [nM]","IC50 [2, 6] [nM]","Ratio of IC50 in the presence of, compared to in the absence of, dipyridamole [2]","Ratio of IC50 in the presence of, compared to in the absence of, dipyridamole [3]","IC50 [3, 6] [nM]","IC50 [4, 6] [nM]","Ratio of IC50 in the presence of, compared to in the absence of, dipyridamole [4]"
CCCCOC(=O)Nc1ccn(C2OC(CO)C(O)C2(F)F)c(=O)n1 (stereo not shown) [Derivative 2],3.4,700,460,8,3.7,340,2.4,2450,,,,,,,,
O=C(Nc1ccn(C2OC(CO)C(O)C2(F)F)c(=O)n1)OCCCl (stereo not shown) [Derivative 3A],10.5,950,610,40.9,27,500,0.6,3000,,,,,,,,
O=C1OCCN1c1ccn(C2OC(CO)C(O)C2(F)F)c(=O)n1 (stereo not shown) [Derivative 3B],18.1,160,100,25,24,100,23,380,,,,,,,,
C#CCOC(=O)Nc1ccn(C2OC(CO)C(O)C2(F)F)c(=O)n1 (stereo not shown) [Derivative 5],11.1,450,380,13,23,240,2.7,1850,,,,,,,,
CC(COC(=O)Nc1ccn(C2OC(CO)C(O)C2(F)F)c(=O)n1)c1ccccc1[N+](=O)[O-] (stereo not shown) [Derivative 6],11,500,430,11,13.1,340,4,1600,,,,,,,,
CC(C)COC(=O)Nc1ccn(C2OC(CO)C(O)C2(F)F)c(=O)n1 (stereo not shown) [Derivative 8],10.4,240,170,14,25,150,4.2,480,,,,,,,,
CCOC(=O)Nc1ccn(C2OC(COC(C)=O)C(OC(C)=O)C2(F)F)c(=O)n1 (stereo not shown) [Derivative 13],,,,,,,,,2.85,6300,6800,3.6,2.8,5000,25000,1
CC(=O)OCC1OC(n2ccc(NC(=O)OCCCl)nc2=O)C(F)(F)C1OC(C)=O (stereo not shown) [Derivative 15],,,,,,,,,3.7,3700,4000,4.5,3.3,3000,10000,2.5
CC(=O)OCC1OC(n2ccc(N3CCOC3=O)nc2=O)C(F)(F)C1OC(C)=O (stereo not shown) [Derivative 16],,,,,,,,,2.7,6200,4200,3.8,3.4,5000,25000,1
